In ChEMBL document CHEMBL3120154, “2-[N-Alkyl(R-phenyl)-aminomethyl]-3-phenyl-7-trifluoromethylquinoxalines as anticancer agents inhibitors of folate enzymes” (Eur J Med Chem, 2014) one finds inhibition of growth data, which are given here for 2 compounds.

A value given as a limit tells only on which side of the number the result lay.

Holding throughout (type): functional
Assay [1] can be described thus: Cytotoxicity against human Hs578T cells at 10^-8 M after 48 hrs by SRB assay. To be noted: Hs-578T, read-out: GI. On the technique in general: The SRB assay estimates cell density from bound dye.
Assay [2] has as its system HCT-116. The experiment in a line: Cytotoxicity against human HCT116 cells at 10^-7 M after 48 hrs by SRB assay. To be noted: HCT-116, 48 h, read-out: GI.
The test system of assay [3] is NCI-H226. The experiment in a line: Cytotoxicity against human NCI-H226 cells at 10^-7 M after 48 hrs by SRB assay. To be noted: NCI-H226, 48 h, read-out: GI.
The test system of assay [4] is 786-0. The experiment in a line: Cytotoxicity against human 786-0 cells at 10^-8 M after 48 hrs by SRB assay. Particulars: 786-0, 48 h, read-out: GI.
In assay [5] the test system is OVCAR-3. Put plainly: Cytotoxicity against human OVCAR3 cells at 10^-8 M after 48 hrs by SRB assay. Particulars: OVCAR-3, 48 h, read-out: GI.
The test system of assay [6] is KM12. Put plainly: Cytotoxicity against human KM12 cells at 10^-7 M after 48 hrs by SRB assay. Particulars: KM12, 48 h, read-out: GI.
In assay [7] the test system is MDA-MB-435. Put plainly: Cytotoxicity against human MDA-MB-435 cells at 10^-8 M after 48 hrs by SRB assay. To be noted: MDA-MB-435, 48 h, read-out: GI.
Assay [8] relates to HCT-15. The experiment in a line: Cytotoxicity against human HCT15 cells at 10^-7 M after 48 hrs by SRB assay. To be noted: HCT-15, 48 h, read-out: GI.
Assay [9] has as its system NCI-H322M. Put plainly: Cytotoxicity against human NCI-H322M cells at 10^-8 M after 48 hrs by SRB assay. To be noted: read-out: GI.
Assay [10] has as its system TK-10. The experiment in a line: Cytotoxicity against human TK10 cells at 10^-7 M after 48 hrs by SRB assay. To be noted: TK-10, 48 h, read-out: GI.
The test system of assay [11] is SF-539. Put plainly: Cytotoxicity against human SF539 cells at 10^-7 M after 48 hrs by SRB assay. Particulars: SF-539, 48 h, read-out: GI.
In assay [12] the test system is K562. The experiment in a line: Cytotoxicity against human K562 cells at 10^-7 M after 48 hrs by SRB assay. To be noted: K562, 48 h, read-out: GI.
Assay [13] deals with HT-29. Put plainly: Cytotoxicity against human HT-29 cells at 10^-7 M after 48 hrs by SRB assay. To be noted: HT-29, 48 h, read-out: GI.
Assay [14] deals with CAKI-1. The experiment in a line: Cytotoxicity against human Caki1 cells at 10^-7 M after 48 hrs by SRB assay. Particulars: CAKI-1, 48 h, read-out: GI.
Assay [15] has as its system ACHN. The experiment in a line: Cytotoxicity against human ACHN cells at 10^-8 M after 48 hrs by SRB assay. To be noted: read-out: GI.
Assay [16] can be described thus: Cytotoxicity against human UACC257 cells at 10^-7 M after 48 hrs by SRB assay. Particulars: UACC-257, 48 h, read-out: GI.
Assay [17] deals with SNB-75. The experiment in a line: Cytotoxicity against human SNB75 cells at 10^-7 M after 48 hrs by SRB assay. To be noted: SNB-75, 48 h, read-out: GI.
Assay [18] in a line: Cytotoxicity against human Hs578T cells at 10^-7 M after 48 hrs by SRB assay. Particulars: Hs-578T, read-out: GI.
Assay [19] is described as follows: Cytotoxicity against human UO31 cells at 10^-5 M after 48 hrs by SRB assay. To be noted: UO-31, 48 h, read-out: GI.
Assay [20] concerns SNB-75. The experiment in a line: Cytotoxicity against human SNB75 cells at 10^-8 M after 48 hrs by SRB assay. To be noted: SNB-75, 48 h, read-out: GI.
Assay [21] concerns IGROV-1. Put plainly: Cytotoxicity against human IGROV1 cells at 10^-8 M after 48 hrs by SRB assay. To be noted: IGROV-1, 48 h, read-out: GI.
For assay [22], the system named is T47D. The experiment in a line: Cytotoxicity against human T47D cells at 10^-8 M after 48 hrs by SRB assay. Particulars: read-out: GI.
Assay [23] deals with NCI/ADR-RES. The experiment in a line: Cytotoxicity against human NCI/ADR-RES cells at 10^-7 M after 48 hrs by SRB assay. To be noted: read-out: GI.
Assay [24] has as its system HT-29. Put plainly: Cytotoxicity against human HT-29 cells at 10^-8 M after 48 hrs by SRB assay. To be noted: HT-29, 48 h, read-out: GI.
Assay [25] relates to A549. Put plainly: Cytotoxicity against human A549 cells at 10^-7 M after 48 hrs by SRB assay. Particulars: A549, 48 h, read-out: GI.
For assay [26], the system named is UACC-62. Put plainly: Cytotoxicity against human UACC62 cells at 10^-7 M after 48 hrs by SRB assay. To be noted: UACC-62, 48 h, read-out: GI.
Assay [27] relates to HOP-92. Put plainly: Cytotoxicity against human HOP92 cells at 10^-8 M after 48 hrs by SRB assay. Particulars: HOP-92, 48 h, read-out: GI.
Assay [28] concerns RXF 393. The experiment in a line: Cytotoxicity against human RXF393 cells at 10^-7 M after 48 hrs by SRB assay. To be noted: RXF 393, 48 h, read-out: GI.
Assay [29] has as its system SK-MEL-28. The experiment in a line: Cytotoxicity against human SK-MEL-28 cells at 10^-7 M after 48 hrs by SRB assay. To be noted: SK-MEL-28, 48 h, read-out: GI.
Assay [30] relates to SK-MEL-28. The experiment in a line: Cytotoxicity against human SK-MEL-28 cells at 10^-8 M after 48 hrs by SRB assay. Particulars: SK-MEL-28, 48 h, read-out: GI.
Assay [31] concerns NCI-H460. The experiment in a line: Cytotoxicity against human NCI-H460 cells at 10^-8 M after 48 hrs by SRB assay. Particulars: NCI-H460, 48 h, read-out: GI.
For assay [32], the system named is COLO 205. The experiment in a line: Cytotoxicity against human COLO205 cells at 10^-7 M after 48 hrs by SRB assay. Particulars: COLO 205, 48 h, read-out: GI.
Assay [33] relates to SW-620. Put plainly: Cytotoxicity against human SW620 cells at 10^-8 M after 48 hrs by SRB assay. Particulars: SW-620, 48 h, read-out: GI.
In assay [34] the test system is SK-MEL-5. The experiment in a line: Cytotoxicity against human SK-MEL-5 cells at 10^-7 M after 48 hrs by SRB assay. To be noted: SK-MEL-5, 48 h, read-out: GI.
In assay [35] the test system is HOP-62. Put plainly: Cytotoxicity against human HOP62 cells at 10^-8 M after 48 hrs by SRB assay. To be noted: HOP-62, 48 h, read-out: GI.
Assay [36] has as its system NCI-H522. Put plainly: Cytotoxicity against human NCI-H522 cells at 10^-7 M after 48 hrs by SRB assay. Particulars: NCI-H522, 48 h, read-out: GI.
Assay [37] has as its system BT-549. The experiment in a line: Cytotoxicity against human BT549 cells at 10^-7 M after 48 hrs by SRB assay. To be noted: BT-549, 48 h, read-out: GI.
Assay [38] deals with UACC-62. The experiment in a line: Cytotoxicity against human UACC62 cells at 10^-8 M after 48 hrs by SRB assay. Particulars: UACC-62, 48 h, read-out: GI.
For assay [39], the system named is IGROV-1. The experiment in a line: Cytotoxicity against human IGROV1 cells at 10^-7 M after 48 hrs by SRB assay. To be noted: IGROV-1, 48 h, read-out: GI.
In assay [40] the test system is A498. The experiment in a line: Cytotoxicity against human A498 cells at 10^-8 M after 48 hrs by SRB assay. Particulars: A498, 48 h, read-out: GI.
For assay [41], the system named is NCI-H522. Put plainly: Cytotoxicity against human NCI-H522 cells at 10^-8 M after 48 hrs by SRB assay. Particulars: NCI-H522, 48 h, read-out: GI.
For assay [42], the system named is Malme-3M. The experiment in a line: Cytotoxicity against human MALME-3M cells at 10^-5 M after 48 hrs by SRB assay. To be noted: read-out: GI.
Assay [43] relates to Malme-3M. Put plainly: Cytotoxicity against human MALME-3M cells at 10^-6 M after 48 hrs by SRB assay. Particulars: read-out: GI.

Take `CCN(Cc1nc2cc(C(F)(F)F)ccc2nc1-c1ccccc1)c1ccc(OC)c(OC)c1`: the inhibition of growth at 0.01 µM in assay [1], in assay [4], in assay [5], in assay [7], in assay [9] and in assay [15] was under 40% each time. Moreover, the inhibition of growth at 0.01 µM in [20], in [21], in assay [22], in assay [24], in assay [27] and in assay [30] was under 40% in each case. For the same compound, the inhibition of growth at 0.01 µM in [31], in assay [33], in assay [35], in assay [38], in assay [40] and in assay [41] was under 40% in each case. Also, the inhibition of growth at 0.1 µM in assay [2], in [3], in assay [6], in assay [8], in assay [10] and in assay [11] was under 40% each time. Also, the inhibition of growth at 0.1 µM is under 40% in assay [12]; under 40% in [13]; under 40% in assay [14]; 67% in assay [16]; under 40% in assay [17]; under 40% in assay [18]. In addition, the inhibition of growth at 0.1 µM in assay [23] was under 40%; in assay [25] it was 42%; in assay [26] it was under 40%; in assay [28], 43%; in [29], under 40%; in assay [32] it was under 40%. The inhibition of growth at 0.1 µM in [34], in assay [36], in [37] and in assay [39] was under 40% throughout. Besides, in [19], the inhibition of growth at 10 µM was under 40%.
As for `C#CCN(Cc1nc2cc(C(F)(F)F)ccc2nc1-c1ccccc1)c1ccc(C)cc1`, in assay [42], the inhibition of growth at 10 µM came out at 41%. For the same compound, the inhibition of growth at 1 µM in [43] is under 40%.
